The values below come from ChEMBL document CHEMBL5729785, “Pyridazinones as PARP7 inhibtors” (2023).

In general, IC50 refers to the concentration that inhibits the measured activity by half.

This experiment addresses T1, Protein mono-ADP-ribosyltransferase TIPARP (Homo sapiens, UniProt Q7Z3E1).
T1 sequence (Q7Z3E1 whole entry): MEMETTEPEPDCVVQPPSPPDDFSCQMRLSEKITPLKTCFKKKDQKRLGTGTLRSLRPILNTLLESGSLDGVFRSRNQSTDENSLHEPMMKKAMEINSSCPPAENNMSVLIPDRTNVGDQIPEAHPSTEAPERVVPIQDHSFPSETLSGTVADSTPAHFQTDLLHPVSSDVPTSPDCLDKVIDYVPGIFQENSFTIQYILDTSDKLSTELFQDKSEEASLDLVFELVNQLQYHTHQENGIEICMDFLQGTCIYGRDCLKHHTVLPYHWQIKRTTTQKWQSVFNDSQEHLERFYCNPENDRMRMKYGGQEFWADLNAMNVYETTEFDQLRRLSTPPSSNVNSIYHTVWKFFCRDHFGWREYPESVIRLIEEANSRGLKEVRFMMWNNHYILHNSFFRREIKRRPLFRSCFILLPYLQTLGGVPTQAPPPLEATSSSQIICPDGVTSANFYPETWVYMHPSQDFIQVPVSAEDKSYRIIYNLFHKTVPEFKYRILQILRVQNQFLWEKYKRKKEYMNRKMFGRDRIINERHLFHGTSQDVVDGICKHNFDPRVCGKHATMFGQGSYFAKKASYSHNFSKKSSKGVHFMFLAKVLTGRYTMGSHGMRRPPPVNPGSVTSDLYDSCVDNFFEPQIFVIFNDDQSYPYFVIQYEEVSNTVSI
Kind of experiment: Enzymatic Assay: Displacement of Probe A, a biotinylated probe binding to the TIPARP active site, was measured using a time-resolved fluorescence energy transfer (TR-FRET) assay. 20 nL of a dose response curve of each test compound was spotted in black 384-well polystyrene proxiplates (Perkin Elmer) using a Mosquito (TTP Labtech). Reactions were performed in a 8 μl volume by adding 6 μL of TIPARP and Probe A in assay buffer (20 mM HEPES pH=8, 100 mM NaCl, 0.1% bovine serum albumin, 2 mM DTT and 0.002% Tween20), incubating with test compound at 25° C. for 30 min, then adding 2 μL of ULight-anti 6×His and LANCE Eu-W1024 labeled streptavidin (Perkin Elmer). The final concentrations of TIPARP and Probe A were 6 nM and 2 nM, respectively. The final concentration of ULight-anti 6×His and LANCE Eu-W1024 labeled streptavidin were 4 nM and 0.25 nM, respectively. Reactions were incubated at 25° C. for an additional 30 min, then read on an Envision platereader equipped with a LANCE/DELFIA top mirror (Perkin Elmer) using excitation of 320 nm and emission of 615 nm and 665 nM with a […]. The ratio of the 665/615 nm emission were calculated for each well to determine the amount of complex of TIPARP and Probe Ain each well. […].

For `C[C@@H](CO[C@@H]1CCN(C2CCN(c3ncc(Br)cn3)CC2)C1=O)Nc1cn[nH]c(=O)c1C(F)(F)F`, the IC50 was less than 100 nM.
